Source: publication PMC8775935, “Chebulinic Acid Suppresses Adipogenesis in 3T3-L1 Preadipocytes by Inhibiting PPP1CB Activity” (International Journal of Molecular Sciences, 2022)
pIC50: −log10 of the molar value.

Target: protein phosphatase-1 catalytic subunit beta (PPP1CB) (Homo sapiens, UniProt P62140)
Test: DiFMUP fluorescence phosphatase assay, dose-response
Assay type: biochemical

Sequence of protein phosphatase-1 catalytic subunit beta (PPP1CB) (P62140 1-266): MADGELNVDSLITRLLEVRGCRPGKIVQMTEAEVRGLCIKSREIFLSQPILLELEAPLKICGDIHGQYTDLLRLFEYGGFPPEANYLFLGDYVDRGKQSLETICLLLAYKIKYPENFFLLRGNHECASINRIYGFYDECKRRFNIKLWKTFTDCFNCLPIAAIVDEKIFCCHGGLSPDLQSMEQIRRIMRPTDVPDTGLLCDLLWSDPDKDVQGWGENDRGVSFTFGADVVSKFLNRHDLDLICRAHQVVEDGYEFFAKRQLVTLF

O=C(O)C[C@@H]1C(=O)O[C@H]2[C@H](OC(=O)c3cc(O)c(O)c(O)c3)[C@@H](OC(=O)c3cc(O)c(O)c4c3[C@H]1[C@H](O)C(=O)O4)[C@H](OC(=O)c1cc(O)c(O)c(O)c1)O[C@@H]2COC(=O)c1cc(O)c(O)c(O)c1 [compound 147, chebulinic acid]
pIC50: 6.52
